Laboratory results as given in US6737383B1, “Herbicidal oxadiazolidines” (priority 1999, dated 2004).

Assays:
crabgrass = assay: Test B pre/postemergence crabgrass; format: in vivo, Digitaria sanguinalis
Outline: (§1)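 Herbicidal effect was estimated by eye on a ten-point control scale after plants spent twelve to sixteen days in a greenhouse following soil or foliar treatment. Foliar sprays targeted plants at one to four leaves; all doses were formulated in a non-phytotoxic solvent with surfactant.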

rape = assay: Test B pre/postemergence rape; format: in vivo, Brassica napus
Outline: as §1

duck salad = assay: Test B flood test duck salad; format: in vivo, Heteranthera limosa
Outline: (§2)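 Plants were grown to the 2-leaf stage before treatment with test chemical, then held in a greenhouse for twelve to sixteen days. Injury was visually rated against untreated controls on a 0–10 scale, where 0 is no effect and 10 is complete control.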

blackgrass = assay: Test B pre/postemergence blackgrass; format: in vivo, Alopecurus myosuroides
Outline: as §1

rice = assay: Test B flood test rice; format: in vivo, Oryza sativa
Outline: as §2

bedstraw = assay: Test B pre/postemergence bedstraw; format: in vivo, Galium aparine; conditions: Postemergence; for Bedstraw plant response rating: scale of 0 to 10, 0 is no effect, 10 is complete control
Outline: as §1

giant foxtail = assay: Test B pre/postemergence giant foxtail; format: in vivo, Setaria faberii
Outline: as §1

wheat = assay: Test B pre/postemergence wheat; format: in vivo, Triticum aestivum
Outline: as §1

surinam grass = assay: Test B pre/postemergence surinam grass; format: in vivo, Brachiaria decumbens
Outline: as §1

wild oat = assay: Test B pre/postemergence wild oat; format: in vivo, Avena fatua
Outline: as §1

soybean = assay: Test B pre/postemergence soybean; format: in vivo, Glycine max
Outline: as §1

bamyardgrass = assay: Test B flood test barnyardgrass; format: in vivo, Echinochloa crus-galli
Outline: as §2

morningglory = assay: Test B pre/postemergence morningglory; format: in vivo, Ipomoea hederacea
Outline: as §1

purple nutsedge = assay: Test B pre/postemergence purple nutsedge; format: in vivo, Cyperus rotundus
Outline: as §1

pigweed = assay: Test B pre/postemergence pigweed; format: in vivo, Amaranthus retroflexus
Outline: as §1

velvetleaf = assay: Test B pre/postemergence velvetleaf; format: in vivo, Abutilon theophrasti
Outline: as §1

cocklebur = assay: Test B pre/postemergence cocklebur; format: in vivo, Xanthium strumarium
Outline: as §1

smallflower flatsedge = assay: Test B flood test smallflower flatsedge; format: in vivo, Cyperus difformis
Outline: as §2

corn = assay: Test B pre/postemergence corn; format: in vivo, Zea mays
Outline: as §1

sugar beet = assay: Test B pre/postemergence sugar beet; format: in vivo, Beta vulgaris
Outline: as §1

[1] = Postemergence, Rate 62 g/ha, scale of 0 to 10, 0 is no effect, 10 is complete control
[2] = Postemergence, Rate 125 g/ha, scale of 0 to 10 where 0 is no effect and 10 is complete control
[3] = Postemergence, Rate 250 g/ha, scale of 0 to 10, 0 is no effect, 10 is complete control
[4] = Postemergence, Rate 500 g/ha, scale of 0 to 10 where 0 is no effect and 10 is complete control
[5] = Preemergence, Rate 62 g/ha, scale 0 to 10 (0 no effect, 10 complete control)
[6] = Preemergence, Rate 125 g/ha, scale of 0 to 10 where 0 is no effect and 10 is complete control
[7] = Preemergence, Rate 500 g/ha, scale of 0 to 10 where 0 is no effect and 10 is complete control
[8] = Rate 62 g/ha, flood test species, Pre-emergence, visual evaluation after twelve to sixteen days
[9] = Rate 125 g/ha, under heading Pre-emergence, flood test species, visual evaluation after twelve to sixteen days
[10] = Rate 250 g/ha, Pre-emergence (flood test species), scale 0 to 10, 0 is no effect, 10 is complete control
[11] = Rate 500 g/ha, Pre-emergence section of Table B, 0 to 10 scale (0 no effect, 10 complete control)

## CC(C)N(C(=O)n1oc(=O)n(CC(=O)N(C)C)c1=O)c1ccc(F)cc1 [Compound 586]
crabgrass; [1]
  Crabgrass plant response rating: 2
crabgrass; [2]
  Plant response rating, Crabgrass: 3
crabgrass; [3]
  Crabgrass plant response rating: 8
crabgrass; [4]
  Plant response rating, Crabgrass: 9
crabgrass; [5]
  Crabgrass plant response rating: 9
crabgrass; [6]
  Crabgrass plant response rating: 9
crabgrass; [7]
  Crabgrass plant response rating: 10
rape; [1]
  Rape plant response rating: 0
rape; [2]
  Plant response rating, Rape: 0
rape; [3]
  Rape plant response rating: 0
rape; [4]
  Plant response rating, Rape: 0
rape; [5]
  Rape plant response rating: 0
rape; [6]
  Rape plant response rating: 0
rape; [7]
  Rape plant response rating: 4
Duck salad; [8]
  Plant response rating, Ducksalad (0 to 10 scale, 0 is no effect, 10 is complete control): 0
Duck salad; [9]
  Ducksalad plant response rating (0 to 10 scale, 0 is no effect, 10 is complete control): 0
Duck salad; [10]
  Ducksalad plant response rating: 0
Duck salad; [11]
  Ducksalad plant response rating: 0
blackgrass; [1]
  Blackgrass plant response rating: 0
blackgrass; [2]
  Plant response rating, Blackgrass: 1
blackgrass; [3]
  Blackgrass plant response rating: 3
blackgrass; [4]
  Plant response rating, Blackgrass: 8
blackgrass; [5]
  Blackgrass plant response rating: 3
blackgrass; [6]
  Blackgrass plant response rating: 7
blackgrass; Preemergence, Rate 250 g/ha
  Blackgrass plant response rating (0 to 10 scale): 9
blackgrass; [7]
  Blackgrass plant response rating: 10
rice; [8]
  Plant response rating, Rice (0 to 10 scale, 0 is no effect, 10 is complete control): 0
rice; [9]
  Rice plant response rating (0 to 10 scale, 0 is no effect, 10 is complete control): 0
rice; [10]
  Rice plant response rating: 0
rice; [11]
  Rice plant response rating: 0
bedstraw; Rate 62 g/ha
  Bedstraw plant response rating: 0
bedstraw; Rate 125 g/ha, scale of 0 to 10 where 0 is no effect and 10 is complete control
  Plant response rating, Bedstraw: 0
bedstraw; Rate 250 g/ha
  Bedstraw plant response rating: 0
Giant foxtail; [1]
  Giant foxtail plant response rating: 2
Giant foxtail; [2]
  Plant response rating, Giant foxtail: 2
Giant foxtail; [3]
  Giant foxtail plant response rating: 8
Giant foxtail; [4]
  Plant response rating, Giant foxtail: 9
Giant foxtail; [5]
  Giant foxtail plant response rating: 9
Giant foxtail; [6]
  Giant foxtail plant response rating: 10
Giant foxtail; [7]
  Giant foxtail plant response rating: 10
wheat; [2]
  Plant response rating, Wheat: 0
wheat; [3]
  Wheat plant response rating: 0
wheat; [4]
  Plant response rating, Wheat: 0
wheat; [5]
  Wheat plant response rating: 0
wheat; [6]
  Wheat plant response rating: 0
wheat; [7]
  Wheat plant response rating: 8
Surinam grass; [1]
  B. signalgrass plant response rating: 0
Surinam grass; [2]
  Plant response rating, B. signalgrass: 0
Surinam grass; [3]
  B. signalgrass plant response rating: 3
Surinam grass; [4]
  Plant response rating, B. signalgrass: 7
Surinam grass; [5]
  B. signalgrass plant response rating: 0
Surinam grass; [6]
  B. signalgrass plant response rating: 5
Surinam grass; Preemergence, Rate 250 g/ha
  B. signalgrass plant response rating (0 to 10 scale, 0 is no effect, 10 is complete control): 8
Surinam grass; [7]
  B. signalgrass plant response rating: 10
Wild oat; [2]
  Plant response rating, Wild oats: 0
Wild oat; [3]
  Wild oats plant response rating: 0
Wild oat; [4]
  Plant response rating, Wild oats: 0
Wild oat; [5]
  Wild oats plant response rating: 0
Wild oat; [6]
  Wild oats plant response rating: 3
Wild oat; [7]
  Wild oats plant response rating: 10
soybean; [2]
  Plant response rating, Soybean: 3
soybean; [3]
  Soybean plant response rating: 3
soybean; [4]
  Plant response rating, Soybean: 3
soybean; [5]
  Soybean plant response rating: 0
soybean; [6]
  Soybean plant response rating: 0
soybean; [7]
  Soybean plant response rating: 0
bamyardgrass; [8]
  Plant response rating, Barnyardgrass (0 to 10 scale, 0 is no effect, 10 is complete control): 0
bamyardgrass; [9]
  Barnyardgrass plant response rating (0 to 10 scale, 0 is no effect, 10 is complete control): 0
bamyardgrass; [10]
  Barnyardgrass plant response rating: 0
bamyardgrass; [11]
  Barnyardgrass plant response rating: 0
morningglory; [1]
  Morningglory plant response rating: 6
morningglory; [2]
  Plant response rating, Morningglory: 10
morningglory; [3]
  Morningglory plant response rating: 10
morningglory; [5]
  Morningglory plant response rating: 0
morningglory; [6]
  Morningglory plant response rating: 0
morningglory; [7]
  Morningglory plant response rating: 4
Purple nutsedge; [1]
  Nutsedge plant response rating: 0
Purple nutsedge; [2]
  Plant response rating, Nutsedge: 0
Purple nutsedge; [3]
  Nutsedge plant response rating: 0
Purple nutsedge; [4]
  Plant response rating, Nutsedge: 0
Purple nutsedge; [5]
  Nutsedge plant response rating: 0
Purple nutsedge; [6]
  Nutsedge plant response rating: 0
Purple nutsedge; [7]
  Nutsedge plant response rating: 2
pigweed; [2]
  Plant response rating, Redroot pigweed: 0
pigweed; [3]
  Redroot pigweed plant response rating: 0
pigweed; [4]
  Plant response rating, Redroot pigweed: 2
pigweed; [5]
  Redroot pigweed plant response rating: 0
pigweed; [6]
  Redroot pigweed plant response rating: 8
pigweed; [7]
  Redroot pigweed plant response rating: 10
velvetleaf; [2]
  Plant response rating, Velvetleaf: 0
velvetleaf; [3]
  Velvetleaf plant response rating: 0
velvetleaf; [4]
  Plant response rating, Velvetleaf: 1
velvetleaf; [5]
  Velvetleaf plant response rating: 0
velvetleaf; [6]
  Velvetleaf plant response rating: 0
velvetleaf; [7]
  Velvetleaf plant response rating: 7
cocklebur; [1]
  Cocklebur plant response rating: 0
cocklebur; [2]
  Plant response rating, Cocklebur: 0
cocklebur; [3]
  Cocklebur plant response rating: 0
cocklebur; [4]
  Plant response rating, Cocklebur: 0
cocklebur; [5]
  Cocklebur plant response rating: 0
cocklebur; [6]
  Cocklebur plant response rating: 0
cocklebur; Preemergence, Rate 250 g/ha
  Cocklebur plant response rating (0 to 10 scale): 0
cocklebur; [7]
  Cocklebur plant response rating: 0
Smallflower flatsedge; [8]
  Plant response rating, S. Flatsedge (0 to 10 scale, 0 is no effect, 10 is complete control): 0
Smallflower flatsedge; [9]
  S. Flatsedge plant response rating (0 to 10 scale, 0 is no effect, 10 is complete control): 0
Smallflower flatsedge; [10]
  S. Flatsedge plant response rating: 0
Smallflower flatsedge; [11]
  S. Flatsedge plant response rating: 0
corn; [1]
  Corn plant response rating: 0
corn; [2]
  Plant response rating, Corn: 0
corn; [3]
  Corn plant response rating: 2
corn; [4]
  Plant response rating, Corn: 3
corn; [5]
  Corn plant response rating: 0
corn; [6]
  Corn plant response rating: 0
corn; Preemergence, Rate 250 g/ha
  Corn plant response rating (0 to 10 scale): 0
corn; [7]
  Corn plant response rating: 0
Sugar beet; [2]
  Plant response rating, Sugarbeets: 0
Sugar beet; [3]
  Sugarbeets plant response rating: 0
Sugar beet; [4]
  Plant response rating, Sugarbeets: 0
Sugar beet; [5]
  Sugarbeets plant response rating: 0
Sugar beet; [6]
  Sugarbeets plant response rating: 0
Sugar beet; [7]
  Sugarbeets plant response rating: 8
